{"source": "patent US20080118449A1", "about": "“COSMETIC FORMULATIONS OF PICEATANNOL AND RETINOIDS AND METHODS OF USE THEREOF” (priority 2006, published 2008)", "key": {"[1]": {"test_system": "skin wrinkles on the face of female subjects", "experiment": "Skin wrinkle improvement by computer aided laser profilometry (Skin Visiometer, silicone replicas)", "type": "in vivo, human", "settings": "9 weeks", "protocol": "The effects of the cosmetic compositions of Example 1 and Comparative Example 1 and 2 on skin wrinkle improvement were determined by computer aided laser profilometry.\nIt involved sixteen female subjects of 30 years and over. The cosmetic compositions of Example 1 and Comparative Examples 1 and 2 were applied on the face (area of 2×2 cm2) of the test subjects, once a day with dose of 0.05 g for 9 weeks. Then, replicas of their skin wrinkles were prepared using white plastic silicon precision moulding compound. The changes in the skin wrinkles of the replicas were detected with Skin Visiometer (SV600 manufactured by Courage+Khazaka electronic GmbH, Germany). Three-dimensional images of the replicas were analyzed with a CCD camera. The skin wrinkle improvement effect was determined as average roughness of the wrinkles (Rz) according to the following numerical formula I:\nRz=(R1+R2+ . . . +Rn−1+Rn)/Number of wrinkles(n) (I)\nWherein, Rn is the roughness of each wrinkle and n is the number of the wrinkles."}, "[2]": {"test_system": "skin of the upper outer arm of 16 human volunteers", "experiment": "Skin irritant potential, modified human 4-h patch test", "type": "in vivo", "protocol": "The skin irritant potential of the cosmetic compositions of Example 1 and Comparative Example 1 and 2 were determined using a modification of the human 4-h patch test (Basketter D A, et al., Food Chem Toxicol 1997,:35: 845-852), involving application of 0.2 ml of the composition to be tested on a 25 mm plain Hill Top Chamber containing a Webril pad (Hill Top Companies, Cincinatti, Ohio, USA) to the skin of the upper outer arm of 16 human volunteers. Both upper arms of the panelist were used. Patches were applied in a balanced random order.\nAfter 24 hours, the patches were removed and then the test areas were marked with a marking pen. After each lapse of 24, 48 and 72 hours, the test areas were observed and treatment sites were assessed for the presence of irritation using a 4 point scale (Table 2) at 24, 48 and 72 h after patch removal"}, "[3]": {"settings": "emulsion (lotion) type formulation"}, "[4]": {"settings": "lotion type cosmetic preparation, 0.20 wt% with 0.20 wt% retinyl palmitate"}, "[5]": {"settings": "solution type formulation, 0.2 wt% with 0.2 wt% retinyl palmitate"}}, "data": [{"compound": "OC[C@H]1O[C@@H](Oc2cc(O)cc(/C=C/c3ccc(O)c(O)c3)c2)[C@H](O)[C@@H](O)[C@@H]1O", "note": "(relative stereo) [astringin, trans-(3,5,3′,4′-tetrahydroxystilbene)-3-O-beta-d-glucopyranoside]", "values": [{"measurement": "effect on retinoid wrinkle improvement", "setting": "[1]; [3]", "result": "enhances the effect of retinol on wrinkle improvement"}, {"measurement": "efficiency relative to piceatannol on wrinkle improvement", "setting": "[1]; emulsion type cosmetic preparations", "result": "seems to be m ore efficient than piceatannol"}, {"measurement": "effect on retinoid wrinkle improvement", "setting": "[1]; solution type formulation", "result": "enhances the effect of retinol on wrinkle improvement"}, {"measurement": "effect of addition on irritancy of retinyl palmitate", "setting": "[2]; [4]", "result": "clearly reduced the irritancy of retinyl palmitate"}, {"measurement": "effect of addition on irritancy of retinyl palmitate", "setting": "[2]; [5]", "result": "clearly reduced the irritancy of retinyl palmitate"}]}, {"compound": "Oc1cc(O)cc(/C=C/c2ccc(O)c(O)c2)c1", "note": "[piceatannol, trans-3,4,3′,5′-tetrahydroxystilbene]", "values": [{"measurement": "effect on retinoid wrinkle improvement", "setting": "[1]; [3]", "result": "enhances the effect of retinol on wrinkle improvement"}, {"measurement": "effect on retinoid wrinkle improvement", "setting": "[1]; solution type formulation", "result": "enhances the effect of retinol on wrinkle improvement"}, {"measurement": "effect of addition on irritancy of retinyl palmitate", "setting": "[2]; [4]", "result": "clearly reduced the irritancy of retinyl palmitate"}, {"measurement": "effect of addition on irritancy of retinyl palmitate", "setting": "[2]; [5]", "result": "clearly reduced the irritancy of retinyl palmitate"}]}]}
